Records with an inconclusive call do not appear.
Test system: C3AKF1 mice, hamster liver cystadenocarcinoma s.c., tumor weight T/C
Experiment: NCI In Vivo Anticancer Drug Screen. Data for tumor model Cystadenocarcinoma, Liver (No. 1) (Hamster) (subcutaneous) in C3AKF1 (CHKRF1) mice
Conditions: endpoint: mean tumor weight, schedule: Q01DX010 (ip), vehicle: saline, higher = larger tumour
Procedure: The antitumor activity of compounds was measured in mice bearing transplantable tumors. Survival or tumor size were measured and the results are expressed as the measurement made in the treated group (T) divided by the measurement made in the vehicle treated control group (C). The tumor model used in this assay is Cystadenocarcinoma, Liver (No. 1) (Hamster) (subcutaneous) in C3AKF1 (CHKRF1) mice

With `CCOc1ccc(Nc2ncnc3nc[nH]c23)cc1CN(CCCl)CCCl` the T/C (dose: 1.0 mg/kg/injection) was 78 % of control, the T/C (dose: 2.0 mg/kg/injection) was 99 % of control and the T/C (dose: 4.0 mg/kg/injection) was 98 % of control.
